Results: publication PMC6364417, “Kinase inhibitor library screening identifies synergistic drug combinations effective in sensitive and resistant melanoma cells” (Journal of Experimental & Clinical Cancer Research : CR, 2019)

How the values were obtained:
Assay in all cases: Kinase inhibitor library screening, PrestoBlue cell viability, 1 or 10 μM, 72 h
IGR37 cells (parental) = conditions: IGR37 Parental, in %
A375 cells (parental) = conditions: A375 Parental; for cell viability (kinase inhibitor library screening): in %
[1] = tested on: A375-GP cells (Dabrafenib-resistant); conditions: A375 GP; for cell viability (kinase inhibitor library screening): in %
[2] = tested on: 501Mel-GP cells (Dabrafenib-resistant); conditions: 501Mel GP, in %
[3] = tested on: IGR37-XP cells (Vemurafenib-resistant); conditions: IGR37 XP; for cell viability (kinase inhibitor library screening): in %
[4] = tested on: A375-XP cells (Vemurafenib-resistant); conditions: A375 XP; for cell viability (kinase inhibitor library screening): in %
[5] = tested on: 501Mel-XP cells (Vemurafenib-resistant); conditions: 501Mel XP, in %
501Mel cells (parental) = conditions: 501Mel Parental, in %
Method in brief: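 Each compound was applied to parental melanoma cells and to derivatives made resistant to Vemurafenib or Dabrafenib. After treatment, viability was read with PrestoBlue on a plate reader and expressed as % of untreated cells, with each line run at least in duplicate.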

[6] = tested on: IGR37-GP cells (Dabrafenib-resistant); conditions: IGR37 GP

Row | Structure (SMILES) | cell viability (kinase inhibitor library screening) (IGR37 cells (parental); 1μΜ) | cell viability (kinase inhibitor library screening) (IGR37 cells (parental); 10μΜ) | cell viability (kinase inhibitor library screening) (A375 cells (parental); 1μΜ) | cell viability (kinase inhibitor library screening) (A375 cells (parental); 10μΜ) | cell viability (kinase inhibitor library screening) ([1]; 1μΜ) | cell viability (kinase inhibitor library screening) ([1]; 10μΜ) | cell viability (kinase inhibitor library screening) ([2]; 1μΜ) | cell viability (kinase inhibitor library screening) ([2]; 10μΜ) | cell viability (kinase inhibitor library screening) ([3]; 1μΜ) | cell viability (kinase inhibitor library screening) ([3]; 10μΜ) | cell viability (kinase inhibitor library screening) ([4]; 10μΜ) | cell viability (kinase inhibitor library screening) ([5]; 1μΜ) | cell viability (kinase inhibitor library screening) ([5]; 10μΜ) | cell viability (kinase inhibitor library screening) (501Mel cells (parental); 1μΜ) | cell viability (kinase inhibitor library screening) (501Mel cells (parental); 10μΜ) | cell viability (kinase inhibitor library screening) ([6]; 1μΜ, in %) | cell viability (kinase inhibitor library screening) ([6]; 10μΜ, in %) | further results
1 | Cc1cc(C)c(/C=C2\C(=O)Nc3ccccc32)[nH]1 [Semaxanib (SU5416)] | 100.1 | 97.0 | 104.2 | 98.1 | 106.4 | 85.4 | 104.6 | 82.4 | 100.1 | 61.3 | 97.5 | 89.0 | 70.1 | 100.0 | 90.0 | 92.4 | 88.3 | –
2 | CNC(=O)c1cc(Oc2ccc(NC(=O)Nc3ccc(Cl)c(C(F)(F)F)c3)cc2)ccn1 [Sorafenib (Nexavar)] | 96.8 | 60.6 | – | 44.5 | 80.9 | 22.0 | 104.7 | – | 106.1 | 16.7 | 16.4 | 96.9 | 23.2 | 97.8 | 53.0 | 102.7 | 41.3 | cell viability (kinase inhibitor library screening) ([4]; 1μΜ): 95.0
3 | CN1CCN(c2nc(C3=C(c4c[nH]c5ccccc45)C(=O)NC3=O)c3ccccc3n2)CC1 [Sotrastaurin (AEB071)] | – | – | – | – | – | – | – | – | – | – | – | – | – | – | – | – | – | Cell viability in kinase inhibitor library screening, IGR37 Parental, 1μΜ (IGR37 cells (parental); 1μΜ, 72 h): 108.5; Cell viability in kinase inhibitor library screening, IGR37 Parental, 10μΜ (IGR37 cells (parental); 10μΜ, 72 h): 95.3; Cell viability in kinase inhibitor library screening, A375 Parental, 1μΜ (A375 cells (parental); 1μΜ, 72 h): 108.3; Cell viability in kinase inhibitor library screening, A375 GP, 10μΜ ([1]; 10μΜ, 72 h): 88.5; Cell viability in kinase inhibitor library screening, 501Mel GP, 1μΜ ([2]; 1μΜ, 72 h): 105.7; Cell viability in kinase inhibitor library screening, 501Mel GP, 10μΜ ([2]; 10μΜ, 72 h): 91.8; Cell viability in kinase inhibitor library screening, IGR37 XP, 10μΜ ([3]; 10μΜ, 72 h): 78.1%; Cell viability in kinase inhibitor library screening, A375 XP, 1μΜ ([4]; 1μΜ, 72 h): 102.8; Cell viability in kinase inhibitor library screening, A375 XP, 10μΜ ([4]; 10μΜ, 72 h): 96.9; Cell viability in kinase inhibitor library screening, 501Mel XP, 1μΜ ([5]; 1μΜ, 72 h): 96.4; Cell viability in kinase inhibitor library screening, 501Mel XP, 10μΜ ([5]; 10μΜ, 72 h): 77.9; Cell viability in kinase inhibitor library screening, 501Mel Parental, 10μΜ (501Mel cells (parental); 10μΜ, 72 h): 95.7; Cell viability in kinase inhibitor library screening, IGR37 GP, 10μΜ ([6]; 10μΜ, 72 h): 89.1%; Cell viability in kinase inhibitor library screening, IGR37 GP, 1μΜ ([6]; 1μΜ, 72 h, in %): 96.8
4 | CCN(CC)CCNC(=O)c1c(C)[nH]c(/C=C2\C(=O)Nc3ccc(F)cc32)c1C.O=C(O)C[C@H](O)C(=O)O [Sunitinib Malate (Sutent)] | 97.5 | 68.0 | 104.0 | 67.2 | – | 72.3 | – | 1.4 | 100.5 | 1.2 | 68.1 | 92.7 | -0.452 | 99.9 | 0.237 | 87.4 | 7.9 | –
